Results: patent publication US20170290820A1, “METHODS AND COMPOSITIONS FOR TREATING BETA-THALASSEMIA AND SICKLE CELL DISEASE” (Academia Sinica, priority 2013, published 2017)

Experiments:
[1] = solubility in DMSO and H2O; format: physicochemical; settings: water; H2O; read-out: solubility H2O
BCL11A [2] = test: BCL11A mRNA level by relative quantitative RT-PCR; format: cell-based, human; settings: FIG. 4A; at IC50, 3 days, relative to mock
Procedure: FIGS. 4A-4D are graphs showing the expression profiles of the γ globin gene and HbF-related regulators after compounds treatment in the primary human erthroid cells. […] Data are presented as the relative expression level in mean±SEM, N=8. […] Upper panel: For detection of the induction level of γ globin, fifty microgram of total cell lysate was analyzed by western blot analysis using antibody against γ globin, or β-actin. Lower panel: The signal intensity was quantified by an image-analyzing software. The intensity of γ globin expression levels of mock control was set as 1. Data are shown as the mean±SEM, N=5. […] Lower panel: The signal was quantified by an image-analyzing software. […] Total RNA was extracted, and the expression level of γ globin gene was analyzed by relative quantitative RT-PCR. […]
After 3 days of drug-treatment, the total RNA was extracted by RNA Spin mini kit (Ge-Healthcare) and reverse-transcription was performed by using superscript II (Invitrogen) followed the manufactors instruction. Quantitative PCR was performed on LightCycler with using STBR green master mix followed the manufactors instruction (Roche). The absolute quantitative RT-PCR was calculated by the standard curve with supplying a known copy number of plasmids. The relative quantitative RT-PCR was normalized to the expression levels of the β-actin and compared to the mock control. […]

BCL11A [3] = test: BCL11A protein by western blot; format: cell-based, human; settings: FIG. 4C, at IC50, 3 days
Procedure: FIGS. 4A-4D are graphs showing the expression profiles of the γ globin gene and HbF-related regulators after compounds treatment in the primary human erthroid cells. […] Data are presented as the relative expression level in mean±SEM, N=8. […] Upper panel: For detection of the induction level of γ globin, fifty microgram of total cell lysate was analyzed by western blot analysis using antibody against γ globin, or β-actin. Lower panel: The signal intensity was quantified by an image-analyzing software. The intensity of γ globin expression levels of mock control was set as 1. Data are shown as the mean±SEM, N=5. […] Upper panel: For detection of the expression level of BCL11A, thirty microgram of total protein was separated by SDS-PAGE electrophoresis, transferred to PVDF membrane, and immunobloted with antibody against BCL11A and β-actin. Lower panel: The signal was quantified by an image-analyzing software. The intensity of the mock control BCL11A levels were set as 1. Data are shown as the mean±SEM, N=5. FIG. 4D is a graph showing that the HU-nonresponding primary human erythroid cells were treated with HU (145.9 μM), NaB (221.6 μM), S51021 (21.8 μM) or SS-2394 (2.3 μM) for 3 days. Total RNA was extracted, and the expression level of γ globin gene was analyzed by relative quantitative RT-PCR. Data are shown as the mean±SEM, N=3. […]

solubility [1] [mM]	SMILES	expression level of BCL11A mRNA (BCL11A [2]) [folds]	BCL11A protein (BCL11A [3])
> 100	NC(=O)NO [HU, hydroxyurea]		
	CCCC(=O)[O-].[Na+] [NaB, sodium butyrate]	0.6	significant reduction
